Measured values reported in patent US11053230B2, “3-hydroxy-imidazolidin-4-one compounds as inhibitors of indoleamine 2,3-dioxygenase” (Netherlands Translational Research Center B.V., priority 2017, dated 2021).
Several values for one entry are separate records, joined by “and”; a condition that tells them apart may be missing. Identical values can stand only once.

Target: T1, IDO1 (Homo sapiens, UniProt P14902)
T1 construct: Recombinant full-length IDO1 (Seegers, N., et al.) and all other assay components were diluted in IDO1 reaction buffer; made in house
T1 sequence (P14902 whole entry): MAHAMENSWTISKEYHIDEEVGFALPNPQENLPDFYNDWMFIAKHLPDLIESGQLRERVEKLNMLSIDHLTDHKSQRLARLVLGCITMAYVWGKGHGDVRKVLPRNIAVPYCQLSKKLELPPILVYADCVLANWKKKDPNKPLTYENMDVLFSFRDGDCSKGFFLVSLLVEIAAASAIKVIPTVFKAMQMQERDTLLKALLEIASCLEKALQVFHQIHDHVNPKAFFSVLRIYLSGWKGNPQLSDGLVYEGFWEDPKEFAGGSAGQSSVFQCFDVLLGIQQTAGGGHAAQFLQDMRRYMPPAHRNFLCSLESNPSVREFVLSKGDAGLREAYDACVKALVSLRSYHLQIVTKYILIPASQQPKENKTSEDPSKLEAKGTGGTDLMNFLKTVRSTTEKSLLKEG
Test: Biochemical IDO1 assay (NFK GreenScreen)
Settings: for IC50: NFK GreenScreen, 25 nM IDO1, 100 μM L-tryptophan, read-out: IC50, inhibitory potency on IDO1; for relative activity of the separated isomers: stated in the synthesis examples, assay not named
Outline: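 Recombinant full-length IDO1 in 50 mM NaH2PO4 pH 7.0 with 0.05% Tween-20 and 1% glycerol converted 100 μM L-tryptophan (final) over 60 min at room temperature with compound, 0.3% DMSO.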

Row | Compound | IC50 | relative activity of the separated isomers
1 | C=Cc1ccc(F)c(C(=O)N2CC(=O)N(O)C2c2cc(Br)cs2)c1F (stereo not drawn) [Example 128, 2-(4-Bromo-2-thienyl)-1-(2,6-difluoro-3-vinyl-benzoyl)-3-hydroxy-imidazolidin-4-one] | ≤ 1 µM | –
2 | O=C1CN(C(=O)c2cccnc2Cl)C(c2cc(Br)cs2)N1O (stereo not drawn) [Example 66, 2-(4-Bromo-2-thienyl)-1-(2-chloropyridine-3-carbonyl)-3-hydroxy-imidazolidin-4-one] | ≤ 1 µM | –
3 | O=C1CN(C(=O)c2c(F)cccc2Cl)C(c2ccc(Br)s2)N1O (stereo not drawn) [Example 3, 2-(5-Bromo-2-thienyl)-1-(2-chloro-6-fluoro-benzoyl)-3-hydroxy-imidazolidin-4-one] | ≤ 5 µM and 1 to 5 µM | –
4 | O=C1CN(C(=O)c2ccccc2F)C(c2csc(Br)c2)N1O (stereo not drawn) [Example 98, 2-(5-Bromo-3-thienyl)-1-(2-fluorobenzoyl)-3-hydroxy-imidazolidin-4-one] | ≤ 1 µM | –
5 | O=C1CN(C(=O)c2c(F)cccc2F)C(c2cc(Cl)cs2)N1O (stereo not drawn) [Example 33, 2-(4-Chloro-2-thienyl)-1-(2,6-difluorobenzoyl)-3-hydroxy-imidazolidin-4-one] | ≤ 1 µM | –
6 | O=C1CN(C(=O)c2ccccc2)C(c2cc(Br)cs2)N1O (stereo not drawn) [Example 12, 1-Benzoyl-2-(4-bromo-2-thienyl)-3-hydroxy-imidazolidin-4-one] | ≤ 5 µM and 1 to 5 µM | –
7 | O=C1CN(C(=O)c2c(F)cccc2F)C(c2cc(Br)cs2)N1O (single isomer, unassigned) [Example 48a, 2-(4-Bromo-2-thienyl)-1-(2,6-difluorobenzoyl)-3-hydroxy-imidazolidin-4-one] | ≤ 1 µM | less active isomer
8 | O=C1CN(Cc2ccccc2F)C(c2cc(Br)cs2)N1O (stereo not drawn) [Example 43, 2-(4-Bromo-2-thienyl)-1-[(2-fluorophenyl)methyl]-3-hydroxy-imidazolidin-4-one] | ≤ 1 µM | –
9 | O=C1CN(C(=O)c2c(F)cccc2F)C(c2cc(Br)c(F)s2)N1O (stereo not drawn) [Example 37, 2-(4-Bromo-5-fluoro-2-thienyl)-1-(2,6-difluorobenzoyl)-3-hydroxy-imidazolidin-4-one] | ≤ 1 µM | –
10 | Cc1sc(C2N(O)C(=O)CN2C(=O)c2c(F)cccc2F)cc1Br (stereo not drawn) [Example 113, 2-(4-bromo-5-methyl-2-thienyl)-1-(2,6-difluorobenzoyl)-3-hydroxy-imidazolidin-4-one] | ≤ 1 µM | –
11 | NCC#Cc1cc(F)c(C(=O)N2CC(=O)N(O)C2c2cc(Br)cs2)c(F)c1 (stereo not drawn) [Example 79, 1-[4-(3-Aminoprop-1-ynyl)-2,6-difluoro-benzoyl]-2-(4-bromo-2-thienyl)-3-hydroxy-imidazolidin-4-one] | ≤ 1 µM | –
12 | O=C1CN(C(=O)c2c(F)cc(C#CC3CC3)cc2F)C(c2cc(Br)cs2)N1O (single isomer, unassigned) [Example 47b, 2-(4-Bromo-2-thienyl)-1-[4-(2-cyclopropylethynyl)-2,6-difluoro-benzoyl]-3-hydroxy-imidazolidin-4-one] | ≤ 1 µM | most active isomer
13 | CC(C)C=Cc1cc(F)c(C(=O)N2CC(=O)N(O)C2c2cc(Br)cs2)c(F)c1 (stereo not drawn) [Example 94, 2-(4-Bromo-2-thienyl)-1-[2,6-difluoro-4-[3-methylbut-1-enyl]benzoyl]-3-hydroxy-imidazolidin-4-one] | ≤ 1 µM | –
14 | O=C1CN(C(=O)c2ccccc2C(F)(F)F)C(c2cc(Br)cs2)N1O (stereo not drawn) [Example 56, 2-(4-Bromo-2-thienyl)-3-hydroxy-1-[2-(trifluoromethyl)benzoyl]imidazolidin-4-one] | ≤ 5 µM and 1 to 5 µM | –
15 | O=C1CN(C(=O)c2c(F)cccc2F)C(c2csc(Br)c2)N1O (single isomer, unassigned) [Example 46a, 2-(5-Bromo-3-thienyl)-1-(2,6-difluorobenzoyl)-3-hydroxy-imidazolidin-4-one] | ≤ 5 µM and 1 to 5 µM | less active isomer
16 | O=C1CN(C(=O)c2c(F)cc(-c3cccs3)cc2F)C(c2cc(Br)cs2)N1O (stereo not drawn) [Example 87, 2-(4-Bromo-2-thienyl)-1-[2,6-difluoro-4-(2-thienyl)benzoyl]-3-hydroxy-imidazolidin-4-one] | ≤ 1 µM | –
17 | CC(=O)NCC#Cc1cc(F)c(C(=O)N2CC(=O)N(O)C2c2cc(Br)cs2)c(F)c1 (stereo not drawn) [Example 130, N-[3-[4-[2-(4-Bromo-2-thienyl)-3-hydroxy-4-oxo-imidazolidine-1-carbonyl]-3,5-difluoro-phenyl]prop-2-ynyl]acetamide] | ≤ 1 µM | –
18 | O=C1CN(C(=O)c2c(F)cc(Br)cc2F)C(c2cc(Br)cs2)N1O (stereo not drawn) [Example 52, 1-(4-Bromo-2,6-difluoro-benzoyl)-2-(4-bromo-2-thienyl)-3-hydroxy-imidazolidin-4-one] | ≤ 1 µM | –
19 | O=C1CN(C(=O)c2c(F)ccc(C(F)(F)F)c2F)C(c2csc(Br)c2)N1O (stereo not drawn) [Example 103, 2-(5-Bromo-3-thienyl)-1-[2,6-difluoro-3-(trifluoromethyl)benzoyl]-3-hydroxy-imidazolidin-4-one] | ≤ 1 µM | –

Row | Compound | IC50 | relative activity of the separated isomers
20 | NS(=O)(=O)NCCCc1cc(F)c(C(=O)N2CC(=O)N(O)C2c2cc(Br)cs2)c(F)c1 (stereo not drawn) [Example 93, 2-(4-Bromo-2-thienyl)-1-[2,6-difluoro-4-[3-(sulfamoylamino)propyl]benzoyl]-3-hydroxy-4-oxo-imidazolidine] | ≤ 1 µM | –
21 | CS(=O)(=O)NCC#Cc1cc(F)c(C(=O)N2CC(=O)N(O)C2c2cc(Br)cs2)c(F)c1 (stereo not drawn) [Example 40, N-[3-[4-[2-(4-bromo-2-thienyl)-3-hydroxy-4-oxo-imidazolidine-1-carbonyl]-3,5-difluoro-phenyl]-prop-2-ynyl]methanesulfonamide] | ≤ 1 µM | –
22 | CCc1ccc(C2N(O)C(=O)CN2C(=O)c2c(F)cccc2F)s1 (stereo not drawn) [Example 18, 1-(2,6-Difluorobenzoyl)-2-(5-ethyl-2-thienyl)-3-hydroxy-imidazolidin-4-one] | ≤ 5 µM and 1 to 5 µM | –
23 | Cc1ccc(F)c(C(=O)N2CC(=O)N(O)C2c2cc(Br)cs2)c1F (stereo not drawn) [Example 77, 2-(4-Bromo-2-thienyl)-1-(2,6-difluoro-3-methyl-benzoyl)-3-hydroxy-imidazolidin-4-one] | ≤ 1 µM | –
24 | O=C1CN(C(=O)c2c(F)ccc(-c3cccc4ccccc34)c2F)C(c2cc(Br)cs2)N1O (stereo not drawn) [Example 134, 2-(4-Bromo-2-thienyl)-1-[2,6-difluoro-3-(1-naphthyl)benzoyl]-3-hydroxy-imidazolidin-4-one] | ≤ 1 µM | –
25 | N#Cc1cc(F)c(C(=O)N2CC(=O)N(O)C2c2cc(Br)cs2)c(F)c1 (stereo not drawn) [Example 117, 4-[2-(4-Bromo-2-thienyl)-3-hydroxy-4-oxo-imidazolidine-1-carbonyl]-3,5-difluoro-benzonitrile] | ≤ 1 µM | –
26 | O=C1CN(Cc2c(F)cccc2F)C(c2cc(Br)cs2)N1O (stereo not drawn) [Example 44, 2-(4-Bromo-2-thienyl)-1-[(2,6-difluorophenyl)methyl]-3-hydroxy-imidazolidin-4-one] | ≤ 1 µM | –
27 | O=C1CN(C(=O)c2c(F)ccc(-c3ccccc3)c2F)C(c2cc(Br)cs2)N1O (stereo not drawn) [Example 122, 2-(4-Bromo-2-thienyl)-1-(2,6-difluoro-3-phenyl-benzoyl)-3-hydroxy-imidazolidin-4-one] | ≤ 1 µM | –
28 | C=Cc1cc(F)c(C(=O)N2CC(=O)N(O)C2c2cc(Br)cs2)c(F)c1 (stereo not drawn) [Example 83, 2-(4-Bromo-2-thienyl)-1-(2,6-difluoro-4-vinyl-benzoyl)-3-hydroxy-imidazolidin-4-one] | ≤ 1 µM | –
29 | C[C@@H](c1ccccc1)N1CC(=O)N(O)C1c1csc(Br)c1 (single isomer, unassigned) [Example 121a] | – | less active isomer
30 | C[C@@H](c1ccccc1)N1CC(=O)N(O)C1c1ccc(Br)s1 (single isomer, unassigned) [Example 120b] | ≤ 1 µM | most active isomer
31 | C#Cc1csc(C2N(O)C(=O)CN2C(=O)c2c(F)cccc2F)c1 (stereo not drawn) [Example 1, 1-(2,6-Difluorobenzoyl)-2-(4-ethynyl-2-thienyl)-3-hydroxy-imidazolidin-4-one] | ≤ 1 µM | –
32 | C#Cc1cc(F)c(C(=O)N2CC(=O)N(O)C2c2cc(Br)cs2)c(F)c1 (stereo not drawn) [Example 38, 2-(4-Bromo-2-thienyl)-1-(4-ethynyl-2,6-difluoro-benzoyl)-3-hydroxy-imidazolidin-4-one] | ≤ 1 µM | –
33 | O=C1CN(Cc2c(F)cccc2F)C(c2cc(Br)cs2)N1O (single isomer, unassigned) [Example 45a, 2-(4-Bromo-2-thienyl)-1-[(2,6-difluorophenyl)methyl]-3-hydroxy-imidazolidin-4-one] | ≤ 5 µM and 1 to 5 µM | less active isomer
34 | O=C1CN(C(=O)c2c(F)cccc2C(F)(F)F)C(c2csc(Br)c2)N1O (stereo not drawn) [Example 100, 2-(5-Bromo-3-thienyl)-1-[2-fluoro-6-(trifluoromethyl)benzoyl]-3-hydroxy-imidazolidin-4-one] | ≤ 5 µM and 1 to 5 µM | –
35 | O=C1CN(C(=O)c2c(F)cccc2F)C(c2cc([N+](=O)[O-])cs2)N1O (stereo not drawn) [Example 21, 1-(2,6-Difluorobenzoyl)-3-hydroxy-2-(4-nitro-2-thienyl)imidazolidin-4-one] | ≤ 1 µM | –
36 | O=C1CN(C(=O)c2ccncc2F)C(c2cc(Br)cs2)N1O (stereo not drawn) [Example 73, 2-(4-Bromo-2-thienyl)-1-(3-fluoropyridine-4-carbonyl)-3-hydroxy-imidazolidin-4-one] | ≤ 1 µM | –
37 | O=C1CN(C(=O)c2c(F)cccc2F)C(c2ccc(Br)s2)N1O (single isomer, unassigned) [Example 49b, 2-(5-Bromo-2-thienyl)-1-(2,6-difluorobenzoyl)-3-hydroxy-imidazolidin-4-one] | ≤ 1 µM | most active isomer
38 | C[C@@H](c1ccccc1)N1CC(=O)N(O)C1c1cc(Br)cs1 (single isomer, unassigned) [Example 118b] | ≤ 1 µM | most active isomer
